Tests used:
[1] = test system: liver after partial hepatectomy; assay: Morphological study of the liver after partial hepatectomy; type: in vivo, rats; conditions: one week after hepatectomy
Method: Morphological methods are highly informative in the assessment of repair processes. Histological tests of the liver after partial hepatectomy were performed using generally accepted methods. Microscopic sections were stained with hematoxylin and eosin using Van Gieson's methodology. Liver tests after partial hepatectomy were performed on 8 groups of animals, totalling 37 rats. All animals were examined one week after hepatectomy.

[2] = test system: lesions of the gastric mucosa; assay: Gastric lesions induced by immobilization and hypothermia; type: in vivo, rats; set-up: % reduction of degree of ulceration / % reduction of ulcerated area: concentration or dose not given beside the values; conditions: Protective effect, 30 minutes before the test
Method: The models used gastric ulcers induced by
b) Immobilization and hypothermia (induced by water cooling);
The compounds were administered intraperitoneally at a dose of 20 mg/kg; in the cryogenic ulcer model compound 2 was administered either intraperitoneally (10 mg/kg) or orally (20 mg/kg twice daily, ie. a total of 40 mg/kg/day) and was compared to orally-administered gastrocepin (1 mg/kg twice daily, ie. a total of 2 mg/kg/day).

mice, rats, dogs = assay: Chronic toxicity studies over six months; type: in vivo; conditions: mice and rats 40 mg/kg per day subcutaneously, dogs 10 or 40 mg/kg per day orally
Method: No effect on body weight, weight of internal organs, structure or function of internal organs or blood indicators was observed. These studies were performed in mice (40 mg/kg per day, given subcutaneously), in rats (40 mg/kg per day, given subcutaneously) and in dogs (10 mg/kg or 40 mg/kg per day, given orally).

[3] = test system: gastric and duodenal ulcer; assay: Clinical trial in gastric and duodenal ulcer; type: in vivo, human; conditions: three 0.2 g tablets per day orally for three weeks
Method: A clinical trial of the effect of Compound 2 on gastric and duodenal ulcer was carried out in several gastroenterological clinics in Russia. A total of 167 patients, 30 to 75 years old, was studied; of these 93 had duodenal ulcers and 74 had gastric ulcers. The results were monitored by gastroscopy at weekly intervals. Each patient continued to receive the treatment which s/he had been given prior to commencement of the trial. Compound 2 was administered in addition to the previous treatment. Compound 2 was given orally as three 0.2 g tablets per day over a period of three weeks, ie a total dose of […] for the treatment course, Compound 2 healed 80% of all the duodenal ulcers treated, and 54% of all the gastric ulcers treated. […] The effect of Compound 2 was compared with those of a placebo, or cimetidine. Even better results were obtained when Compound 2 was administered together with conventional therapy. […] Following termination of treatment with Compound 2 no ulceration was observed, ie there was no sign of the abstinence syndrome which is typically seen with H2-blockers and hormones. Compound 2 was an effective therapeutic agent with a pronounced reparative effect on erosive and ulcerating injuries of the gastroduodenal area.

myocardial infarction = assay: Clinical trial in subacute myocardial infarction and cardiac insufficiency (Example 23); type: in vivo, human
Method: A clinical trial of Compound 2 was carried out on 100 patients aged from 25 to 75 years during the subacute period of myocardial infarction. Each patient continued to receive the treatment which s/he had been given prior to commencement of the trial. Compound 2 was administered in addition to the previous treatment. A control group received conventional treatment, ie. nitrate, anticoagulants and/or hypotensive agents as appropriate. The results of treatment of these two groups were compared with groups of patients receiving riboxine and placebo. Compound 2 was administered over a period of three weeks from the 7th to 28th days following infarction, and was administered orally at a dose of three 0.2 g tablets per day.
The effects of treatment were monitored by 12-lead electrocardiography, using the QRS Scoring System. Haemodynamic parameters and the contractile function of the myocardium were monitored using a Toshiba ultrasound camera model SSH-60A, using conventional methods.
The effect of Compound 2 was also studied in 25 patients aged 43 to 66 years suffering from cardiac insufficiency, in comparison with riboxine or a placebo.

[4] = test system: acute Con A-induced inflammation; assay: Acute Con A-induced inflammation (paw oedema) in mice; type: in vivo
Method: Saline solution was similarly administered to the control animals. There were 10 mice in each group. After one hour, con A at a dose of 100 mkg/20 g of body weight was administered by sub-plantar injection into the plantar aponeurosis of the left paws of mice of both the experimental and control groups. The same amount of saline splution was injected into the contralateral paws. After one hour, the mice were killed and the experimental and control paws were weighed to assess the reaction index of the inflammation in the ankle-joint (Liubimov et al, 1999).
The anti-inflammatory effect of Compound 2 and Compound 7 was compared in male mice weighing 18-22 g, using the model described in Example 9. The ED50, i.e. the dose reducing paw ooedema by 50% one hour after injection of Concanavalin A, was calculated.

bone plate defect = assay: Repair of bone plate defect of the rat lower jaw; type: in vivo, rats; conditions: 50 mg/kg over the course of three months
Method: A round or oval defect of the bone plate with a diameter of 2.5 mm was produced in the bone tissue of the rat lower jaw, using a dental drill under ether anaesthesia. In the post-operative period, the animals were kept in separate cages, with normal food and water ad libitum. The experiments were performed on 130 male rats weighing 180-200 g, with 10 rats in each group.
The animal test groups were treated with Compound 2 (50 or 100 mg/kg) or methyl uracil (50 mg/kg) 24 hours after the damage and on a daily basis for three months. […] The following groups were used:
The repair pattern of the injured bone was assessed morphologically on tissue sections after 30, 60 and 90 days. The sections were examined by light microscopy at magnifications of ×15, ×100, ×200, and ×400.

[5] = Table 4, 0.005M dose (Compound 2 19 mg/kg, Compound 7 16.4 mg/kg) + Con A
[6] = Table 4, 0.01M dose (Compound 2 38 mg/kg, Compound 7 32 mg/kg) + Con A
[7] = Table 4, 0.015M dose (Compound 2 57 mg/kg, Compound 7 49 mg/kg) + Con A
[8] = Table 4, 0.02M dose (Compound 2 76 mg/kg, Compound 7 65.6 mg/kg) + Con A

## CC[n+]1cn(C)c(C(=O)NC)c1C(=O)NC.O=S(=O)([O-])c1ccccc1 [Compound 2, 1-methyl-3-ethyl-4,5-bis(N-methylcarbamoyl)-imidazolium benzenesulfonate]
[1]; 0.1 MM/kg
  histological findings in the liver: showed no undesirable effects
[1]; 0.2 MM/kg
  histological findings in the liver: some of the animals demonstrated hepatocyte hypertrophy combined with subacute hepatitis
[2]
  % reduction of degree of ulceration: 64%
  % reduction of ulcerated area: 62%
  Area of lesion: 4.1 ± 0.8
[2]; 20 mg/kg intraperitoneally
  Average number of lesions per animal: 4.1 ± 0.9
mice, rats, dogs
  chronic toxicity findings: had no irritating or allergic action, does not act on the central nervous system, and has no teratogenic, mutagenic or carcinogenic immunosuppressive activity
[3]
  side effects: No side effects were observed
[3]; added to previous treatment
  duodenal ulcers healed: 80%
  gastric ulcers healed: 54%
Myocardial infarction; both patient groups
  side effects: No side effects were observed in either group
Myocardial infarction; myocardial infarction patients, three 0.2 g tablets per day orally, 7th to 28th day
  recovery of the contractile function of the myocardium versus placebo or riboxine: recovery of the contractile function of the myocardium was more rapid
Myocardial infarction; patients suffering from cardiac insufficiency
  progression of cardiac insufficiency: prevented the progression of the condition
[4]; Table 3, 10 mg/kg intra-peritoneally one hour before Con A, male CBA mice
  Reaction index (%): 10.4 ± 2.0 %
[4]; Table 3, 50 mg/kg intra-peritoneally one hour before Con A, male CBA mice
  Reaction index (%): 8.4 ± 0.9 %
[4]; [5]
  Paw oedema reduction (%): 66%
  Reaction index (%): 5.4 ± 2.0%
[4]; [6]
  Paw oedema reduction (%): 52%
  Reaction index (%): 7.7 ± 1.8%
[4]; Table 4, 10 mg/kg + Con A
  Paw oedema reduction (%): 33%
  Reaction index (%): 11.1 ± 3.5%
[4]; [7]
  Paw oedema reduction (%): 66%
  Reaction index (%): 5.3 ± 2.0%
[4]; [8]
  Paw oedema reduction (%): 77%
  Reaction index (%): 3.3 ± 2.0%
[4]; male mice
  ED50, dose reducing paw oedema by 50% one hour after injection of Concanavalin A: 33 mg/kg
Bone plate defect
  closing of bone defect: the defect was almost fully closed by the newly formed primary callus bone tissue
